Experimental data: patent US12071411B2, “Inhibitors of HIF-2α and methods of use thereof” (ARCUS BIOSCIENCES, INC., priority 2021, dated 2024)
Read-outs that look alike come from different tables or passages of the source.

Experiments:
HIF-2α [1] = molecular target: T1, HIF-2α (Homo sapiens, UniProt Q99814); test: HIF-2α Luciferase Reporter Assay (serum free) in HIF-Luc-786-0 cells; format: cell-based; details: Opti-MEM, 786-0 reporter cells, 20 hours incubation
How it was run: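 786-0 cells stably transduced with HIF luciferase reporter, 20,000 cells/well in serum-free Opti-MEM, compounds (50 uM downward, 1% DMSO) 20 h at 37 °C. ONE-Glo luminescence normalized to DMSO and no-cell controls; IC50 from four-parameter fit.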

HIF-2α [2] = molecular target: T1, HIF-2α; test: HIF-2α Luciferase Reporter Assay (serum), HRE-luciferase 786-0 cells in 100% human serum; format: cell-based; details: for IC50: 100% human serum, 786-0 reporter cells, overnight incubation, read-out: Serum Potency
How it was run: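 786-0 cells stably expressing an HRE-luciferase reporter were plated and rested 3 h. They were then treated overnight at 37 °C with compound diluted in 100% human serum. Serum was replaced with Opti-MEM, ONE-Glo luminescence was read, and IC50 came from a 4-parameter logistic fit.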

[3] = ratio of IC50 in 100% serum to IC50 in serum free conditions, approximate

T1 sequence (Q99814 whole entry): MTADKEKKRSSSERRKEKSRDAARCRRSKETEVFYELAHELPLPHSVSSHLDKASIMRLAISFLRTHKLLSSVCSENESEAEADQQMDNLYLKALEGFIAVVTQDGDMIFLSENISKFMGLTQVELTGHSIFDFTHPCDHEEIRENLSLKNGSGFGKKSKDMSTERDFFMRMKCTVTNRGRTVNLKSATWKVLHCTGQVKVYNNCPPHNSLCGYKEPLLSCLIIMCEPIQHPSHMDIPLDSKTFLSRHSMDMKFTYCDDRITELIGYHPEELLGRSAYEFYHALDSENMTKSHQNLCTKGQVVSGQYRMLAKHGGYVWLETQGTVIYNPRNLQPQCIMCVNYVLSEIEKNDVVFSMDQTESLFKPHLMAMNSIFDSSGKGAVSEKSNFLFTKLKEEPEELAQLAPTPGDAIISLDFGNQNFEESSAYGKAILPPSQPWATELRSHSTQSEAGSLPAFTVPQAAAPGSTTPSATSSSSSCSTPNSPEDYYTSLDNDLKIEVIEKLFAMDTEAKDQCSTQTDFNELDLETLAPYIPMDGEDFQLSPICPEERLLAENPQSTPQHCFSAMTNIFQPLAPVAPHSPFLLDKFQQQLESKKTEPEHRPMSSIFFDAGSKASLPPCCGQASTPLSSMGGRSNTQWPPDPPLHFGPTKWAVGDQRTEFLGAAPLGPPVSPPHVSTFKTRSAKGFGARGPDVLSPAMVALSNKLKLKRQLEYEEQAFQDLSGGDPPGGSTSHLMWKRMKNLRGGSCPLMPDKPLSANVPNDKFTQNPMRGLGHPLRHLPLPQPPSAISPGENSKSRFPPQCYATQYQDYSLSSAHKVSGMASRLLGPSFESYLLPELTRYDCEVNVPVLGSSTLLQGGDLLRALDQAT

Row | Compound | IC50 (HIF-2α [1]) [nM] | IC50 (HIF-2α [2]) [nM] | Serum Shift (approximate) (HIF-2α [2]; [3]) | Serum Shift (approximate) (HIF-2α [2])
1 | O[C@H]1c2c(C(F)(F)F)nn([C@H]3C[C@H](COC(F)F)C3)c2CC1(F)F [Example 102, (4S)-1-[3-(difluoromethoxymethyl)cyclobutyl]-5,5-difluoro-3-(trifluoromethyl)-4,6-dihydrocyclopenta[c]pyrazol-4-ol] | 100 to 1000 | > 1000 | 17 | 
2 | O[C@H]1c2c(C(F)(F)F)nn([C@H]3C[C@@H](COC(F)F)C3)c2CC1(F)F [Example 103, (4S)-1-[3-(difluoromethoxymethyl)cyclobutyl]-5,5-difluoro-3-(trifluoromethyl)-4,6-dihydrocyclopenta[c]pyrazol-4-ol] | > 1000 | > 1000 | 7 | 
3 | O[C@H]1c2c(C(F)(F)F)nn([C@H]3C[C@H](COC(F)F)C3)c2CCC1(F)F [Example 104, (4S)-1-[3-(difluoromethoxymethyl)cyclobutyl]-5,5-difluoro-3-(trifluoromethyl)-6,7-dihydro-4H-indazol-4-ol] | 100 to 1000 | > 1000 | 20 | 
4 | C[C@H](OC(F)F)[C@H]1C[C@H](n2nc(C(F)(F)F)c3c2CC(F)(F)[C@H]3O)C1 [Example 106, (4S)-1-[3-[(1S)-1-(difluoromethoxy)ethyl]cyclobutyl]-5,5-difluoro-3-(trifluoromethyl)-4,6-dihydrocyclopenta[c]pyrazol-4-ol] | 100 to 1000 | 100 to 1000 | 1 | 
5 | O[C@H]1c2c(C(F)(F)F)nn(CC3CCC(F)(F)CC3)c2CC1(F)F [Example 113, (4S)-1-[(4,4-difluorocyclohexyl)methyl]-5,5-difluoro-3-(trifluoromethyl)-1H, 4H, 5H, 6H-cyclopenta[c]pyrazol-4-ol] | < 100 | > 1000 | 14 | 
6 | O[C@H]1c2c(C(F)(F)F)nn(-c3ccc(F)cc3)c2CC1(F)F [Example 114, (4S)-5,5-difluoro-1-(4-fluorophenyl)-3-(trifluoromethyl)-4,6-dihydrocyclopenta[c]pyrazol-4-ol] | 100 to 1000 | > 1000 |  | 27
7 | O[C@H]1c2c(C(F)(F)F)nn(-c3ccc(F)c(F)c3)c2CC1(F)F [Example 115] | 100 to 1000 | > 1000 | 45 | 
8 | O[C@H]1c2c(C(F)(F)F)nn(-c3ccc(Cl)cc3)c2CC1(F)F [Example 116, (4S)-1-(4-chlorophenyl)-5,5-difluoro-3-(trifluoromethyl)-4,6-dihydrocyclopenta[c]pyrazol-4-ol] | < 100 | > 1000 | 73 | 
9 | O[C@H]1c2c(C(F)(F)F)nn(-c3ccc(C(F)(F)F)cc3)c2CC1(F)F [Example 117, (4S)-5,5-difluoro-3-(trifluoromethyl)-1-[4-(trifluoromethyl)phenyl]-4,6-dihydrocyclopenta[c]pyrazol-4-ol] | < 100 | > 1000 | >62 | 
10 | O[C@H]1c2c(C(F)(F)F)nn(-c3ccc(Cl)c(Cl)c3)c2CC1(F)F [Example 118, (4S)-1-(3,4-dichlorophenyl)-5,5-difluoro-3-(trifluoromethyl)-4,6-dihydrocyclopenta[c]pyrazol-4-ol] | < 100 | > 1000 | 119 | 
11 | O[C@H]1c2c(C(F)(F)F)nn(-c3ccc(Cl)c(F)c3)c2CC1(F)F [Example 119, (4S)-1-(4-chloro-3-fluorophenyl)-5,5-difluoro-3-(trifluoromethyl)-4,6-dihydrocyclopenta[c]pyrazol-4-ol] | < 100 | > 1000 | 73 | 
12 | O[C@H]1c2c(C(F)(F)F)nn(CCCOC(F)(F)F)c2CC[C@H]1F [Example 120, (4S,5R)-5-fluoro-1-[3-(trifluoromethoxy)propyl]-3-(trifluoromethyl)-4,5,6,7-tetrahydroindazol-4-ol] | < 100 | 100 to 1000 | 4 | 
13 | O[C@H]1c2c(C(F)(F)F)nn([C@@H]3CCC(F)(F)[C@@H](F)C3)c2CC1(F)F [Example 121, (4S)-5,5-difluoro-1-[(1R,3S)-3,4,4-trifluorocyclohexyl]-3-(trifluoromethyl)-4,6-dihydrocyclopenta[c]pyrazol-4-ol] | < 100 | > 1000 | 11 | 
14 | O[C@H]1c2c(C(F)(F)F)nn([C@H]3CCC(F)(F)[C@H](F)C3)c2CC1(F)F [Example 122, (4S)-5,5-difluoro-1-[(1S,3R)-3,4,4-trifluorocyclohexyl]-3-(trifluoromethyl)-4,6-dihydrocyclopenta[c]pyrazol-4-ol] | < 100 | > 1000 | 6 | 
15 | O=S1(=O)CC2(CC(n3nc(C(F)(F)F)c4c3CC(F)(F)[C@H]4O)C2)C1 [Example 127, (4S)-1-(2,2-dioxo-2λ^6-thiaspiro[3.3]heptan-6-yl)-5,5-difluoro-3-(trifluoromethyl)-4,6-dihydrocyclopenta[c]pyrazol-4-ol] | > 1000 | > 1000 | 3 | 
16 | [O-][S+](CCn1nc(C(F)(F)F)c2c1CCC(F)(F)[C@H]2O)C(F)F (stereo partly drawn) [Example 128, (4S)-1-[2-(difluoromethylsulfinyl)ethyl]-5,5-difluoro-3-(trifluoromethyl)-6,7-dihydro-4H-indazol-4-ol] | 100 to 1000 | > 1000 | 4 | 
17 | CO[C@H](CCn1nc(C(F)(F)F)c2c1[C@@H](F)[C@@H](F)[C@H]2O)C(F)(F)F [Example 131, (4S,5S,6R)-5,6-difluoro-1-[(3R)-4,4,4-trifluoro-3-methoxybutyl]-3-(trifluoromethyl)-5,6-dihydro-4H-cyclopenta[c]pyrazol-4-ol] | < 100 | < 100 | 2 | 
18 | O[C@H]1c2c(C(F)(F)F)nn(C3CCC(F)(F)CC3)c2[C@@H](F)[C@H]1F [Example 132, (4S,5S,6R)-1-(4,4-difluorocyclohexyl)-5,6-difluoro-3-(trifluoromethyl)-5,6-dihydro-4H-cyclopenta[c]pyrazol-4-ol] | < 100 | > 1000 | 8 | 
19 | O[C@H]1c2c(C(F)(F)F)nn([C@@H]3C[C@@H](F)[C@@H](F)[C@@H](F)C3)c2[C@H](F)[C@H]1F [Example 138, (4S,5S,6S)-5,6-difluoro-1-[(3R,5S)-3,4,5-trifluorocyclohexyl]-3-(trifluoromethyl)-5,6-dihydro-4H-cyclopenta[c]pyrazol-4-ol] | < 100 | > 1000 | 9 | 
20 | O[C@H]1c2c(C(F)(F)F)nn(CCCC(F)(F)F)c2[C@H](F)[C@H]1F [Example 139, (4S,5S,6S)-5,6-difluoro-1-(4,4,4-trifluorobutyl)-3-(trifluoromethyl)-5,6-dihydro-4H-cyclopenta[c]pyrazol-4-ol] | < 100 | > 1000 | 6 | 
21 | O[C@H]1c2c(C(F)(F)F)nn([C@@H]3C[C@@H](F)[C@@H](F)[C@@H](F)C3)c2[C@@H](F)[C@H]1F [Example 140, (4S,5S,6R)-5,6-difluoro-1-[(3R,5S)-3,4,5-trifluorocyclohexyl]-3-(trifluoromethyl)-5,6-dihydro-4H-cyclopenta[c]pyrazol-4-ol] | < 100 | 100 to 1000 |  | 3
22 | O[C@H]1c2c(C(F)(F)F)nn([C@H]3C[C@@H](F)[C@@H](F)[C@@H](F)C3)c2[C@@H](F)[C@H]1F [Example 143, (4S,5S,6R)-5,6-difluoro-1-[(3R,5S)-3,4,5-trifluorocyclohexyl]-3-(trifluoromethyl)-5,6-dihydro-4H-cyclopenta[c]pyrazol-4-ol] | 100 to 1000 | > 1000 | 9 | 
23 | O[C@H]1c2c(C(F)(F)F)nn(CCC3CC3(F)F)c2[C@@H](F)[C@H]1F (stereo partly drawn) [Example 152, (4S,5S,6R)-1-[2-(2,2-difluorocyclopropyl)ethyl]-5,6-difluoro-3-(trifluoromethyl)-5,6-dihydro-4H-cyclopenta[c]pyrazol-4-ol] | 100 to 1000 | 100 to 1000 | 3 | 
24 | O[C@H]1c2c(C(F)(F)F)nn([C@@H]3CC[C@@H](F)[C@@H](F)C3)c2[C@H](F)C1(F)F [Example 153, (4S,6S)-1-[(1R,3S,4R)-3,4-difluorocyclohexyl]-5,5,6-trifluoro-3-(trifluoromethyl)-4,6-dihydrocyclopenta[c]pyrazol-4-ol] | 100 to 1000 | > 1000 | 18 | 
25 | O[C@H]1c2c(C(F)(F)F)nn([C@@H]3CC[C@@H](F)[C@@H](F)C3)c2[C@@H](F)C1(F)F [Example 156, (4S,6R)-1-[(1R,3S,4R)-3,4-difluorocyclohexyl]-5,5,6-trifluoro-3-(trifluoromethyl)-4,6-dihydrocyclopenta[c]pyrazol-4-ol] | < 100 | 100 to 1000 | 8 | 
26 | O[C@H]1c2c(C(F)(F)F)nn([C@H]3CC[C@H](F)[C@H](F)C3)c2[C@@H](F)C1(F)F [Example 157, (4S,6R)-1-[(1S,3R,4S)-3,4-difluorocyclohexyl]-5,5,6-trifluoro-3-(trifluoromethyl)-4,6-dihydrocyclopenta[c]pyrazol-4-ol] | < 100 | < 100 | 3 | 
